Source: US20240217947A1, “Morpholinylquinazoline Compound, Pharmaceutical compositions thereof and Use Thereof” (SHANGHAI YINGLI PHARMACEUTICAL CO., LTD, priority 2022, published 2024)

Tests used:
[1] = molecular target: PI3Kα (Homo sapiens, UniProt P42336); assay: PI3Kα enzyme activity inhibition IC50 evaluation assay (ADP-Glo Kinase Assay); assay type: biochemical; conditions: ATP 25 μM, PIP2 50 μg/mL, 1 hour room temperature, read-out: PI3K-α IC50
Method: (§1) Effec Example 1 IC50 evaluation assay for PI3Kα, PI3Kδ, PI3Kβ and PI3Kγ enzyme activity inhibition
(§2) The experiment was performed using the ADP-Glo Kinase Assay kit, following the instructions. The following buffer solutions were prepared: 50 mM HEPES, pH 7.5, 3 mM MgCl2, 1 mM EGTA, 100 mM NaCl, 0.03% CHAPS, 2 mM DTT. The test compound samples were dissolved in DMSO and added to the screening system at a certain starting concentration such as 10 μM, 3-fold dilution, while setting up both DMSO control and no kinase control. The optimal concentrations of PI3Kα, PI3Kδ, PI3Kβ and PI3Kγ enzymes, substrate (PIP2) and ATP were prepared in buffer. The enzyme reaction system included: buffer, ATP 25 μM, kinase substrate (PIP2, 50 μg/mL), kinases [PI3Kα (0.15 μg/mL), PI3Kδ (1.2 μg/mL), PI3Kβ (0.3 μg/mL) and PI3Kγ (2.5 μg/mL)], etc. The reaction system was reacted at room temperature for 1 hour. The reaction was terminated by adding a termination reagent (ADP-Glo reagent, 5 μL), and the ADP content in the system was detected using a detection reagent (Kinase Detection Reagent, 10 μL). Signal data were collected using the Envision instrument. Calculate the percentage of (%) inhibition according to the following formula: % inhibition=(DMSO control signal value−sample signal value)/(DMSO control signal value−no-kinase control signal value). The IC50 value was obtained by fitting the curve using the formula Y=Bottom+(Top-Bottom)/(1+(IC50/X)^HillSlope).

[2] = molecular target: PI3Kδ (Homo sapiens, UniProt O00329); assay: PI3Kδ enzyme activity inhibition IC50 evaluation assay (ADP-Glo Kinase Assay); assay type: biochemical; conditions: ATP 25 μM, PIP2 50 μg/mL, 1 hour room temperature, read-out: PI3K-δ IC50
Method: as §1, §2

[3] = molecular target: T1, HDAC6 (Homo sapiens, UniProt Q9UBN7); assay: HDAC6 enzyme activity inhibition IC50 evaluation experiment; assay type: biochemical; conditions: HDAC6 5 nM, acetylated peptide 11 μM, trypsin, fluorescence
T1 sequence (Q9UBN7 1-1215): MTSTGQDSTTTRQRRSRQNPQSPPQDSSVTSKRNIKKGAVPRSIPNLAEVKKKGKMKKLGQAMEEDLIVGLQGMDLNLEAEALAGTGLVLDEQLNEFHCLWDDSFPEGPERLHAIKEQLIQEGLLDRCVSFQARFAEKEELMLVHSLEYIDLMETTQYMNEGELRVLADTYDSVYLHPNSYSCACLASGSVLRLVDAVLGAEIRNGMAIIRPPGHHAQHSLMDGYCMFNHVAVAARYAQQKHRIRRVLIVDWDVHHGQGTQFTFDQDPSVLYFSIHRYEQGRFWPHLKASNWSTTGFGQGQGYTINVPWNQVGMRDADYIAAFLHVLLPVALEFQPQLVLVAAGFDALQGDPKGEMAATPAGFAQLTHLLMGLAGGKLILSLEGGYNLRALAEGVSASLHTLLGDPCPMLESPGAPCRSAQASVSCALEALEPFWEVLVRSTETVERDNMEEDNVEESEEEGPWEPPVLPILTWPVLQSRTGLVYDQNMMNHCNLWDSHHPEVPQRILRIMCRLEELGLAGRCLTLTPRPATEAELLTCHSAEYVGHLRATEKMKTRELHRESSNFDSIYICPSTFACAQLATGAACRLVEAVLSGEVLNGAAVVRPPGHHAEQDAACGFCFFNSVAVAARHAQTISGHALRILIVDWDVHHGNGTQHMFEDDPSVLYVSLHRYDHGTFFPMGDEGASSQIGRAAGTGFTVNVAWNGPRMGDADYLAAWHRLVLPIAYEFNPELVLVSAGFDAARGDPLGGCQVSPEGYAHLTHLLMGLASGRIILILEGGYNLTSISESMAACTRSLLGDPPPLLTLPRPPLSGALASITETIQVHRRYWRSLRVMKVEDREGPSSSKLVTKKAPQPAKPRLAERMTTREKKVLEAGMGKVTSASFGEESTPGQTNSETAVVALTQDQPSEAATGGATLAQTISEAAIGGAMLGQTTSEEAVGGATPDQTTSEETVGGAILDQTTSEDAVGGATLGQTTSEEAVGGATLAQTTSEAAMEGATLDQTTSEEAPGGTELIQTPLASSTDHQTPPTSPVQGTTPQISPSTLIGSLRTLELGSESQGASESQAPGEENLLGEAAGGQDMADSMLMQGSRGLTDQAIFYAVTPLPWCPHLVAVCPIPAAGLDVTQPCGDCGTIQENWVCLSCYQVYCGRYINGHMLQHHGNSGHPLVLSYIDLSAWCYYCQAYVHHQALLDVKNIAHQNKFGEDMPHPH
Method: (§3) Effect Example 2 HDAC1, HDAC2, HDAC3, HDAC6 enzyme activity inhibition IC50 evaluation experiment
(§4) Buffer solution (50 mM Tris 7.5, 0.01% Tween-20, 50 mM NaCl) was prepared according to the kit instructions, and the enzyme solution and substrate solution (acetylated peptide with the addition of trypsin) were prepared using the buffer solution. The test compound samples were dissolved with DMSO and added to the screening system at a certain starting concentration such as 10 μM, 3-fold dilution, while setting up a DMSO control and no-enzyme control. The enzyme reaction system includes: buffer, enzyme [final concentration: HDAC1=10 nM, HDAC2=4 nM, HDAC3=7 nM, HDAC6=5 nM], substrate (acetylated peptide) [final concentration: Peptide(HDAC1)=8 μM, Peptide(HDAC2)=10 μM, Peptide(HDAC3)=5 μM, Peptide(HDAC6)=11 μM], trypsin [final concentration: Trypsin(HDAC1,2,3)=0.05 μM, Trypsin(HDAC6)=0.1 μM], etc. The enzymes and compounds were reacted at room temperature for 15 min. After adding the substrate and Trypsin, centrifugation was performed for 1 min, and the fluorescence signal data (excitation wavelength 355 nM/emission wavelength 460 nm) was read continuously for 60 min using Envision, and the linear reaction segment was selected to obtain the slope and thus calculate the inhibition rate at that concentration. The IC50 value was obtained by fitting the curve using the formula Y=Bottom+(Top-Bottom)/(1+(IC50/X)^HillSlope).

[4] = molecular target: HDAC1 (Homo sapiens, UniProt Q13547); assay: HDAC1 enzyme activity inhibition IC50 evaluation experiment; assay type: biochemical; conditions: HDAC1 10 nM, acetylated peptide 8 μM, trypsin, fluorescence
Method: as §3, §4

[5] = molecular target: HDAC2 (Homo sapiens, UniProt Q92769); assay: HDAC2 enzyme activity inhibition IC50 evaluation experiment; assay type: biochemical; conditions: HDAC2 4 nM, acetylated peptide 10 μM, trypsin, fluorescence
Method: as §3, §4

[6] = molecular target: PI3Kβ (Homo sapiens, UniProt P42338); assay: PI3Kβ enzyme activity inhibition IC50 evaluation assay (ADP-Glo Kinase Assay); assay type: biochemical; conditions: ATP 25 μM, PIP2 50 μg/mL, 1 hour room temperature, read-out: PI3K-β IC50
Method: as §1, §2

[7] = molecular target: PI3Kγ (Homo sapiens, UniProt P48736); assay: PI3Kγ enzyme activity inhibition IC50 evaluation assay (ADP-Glo Kinase Assay); assay type: biochemical; conditions: ATP 25 μM, PIP2 50 μg/mL, 1 hour room temperature, read-out: PI3K-γ IC50
Method: as §1, §2

[8] = tested on: relapsed and/or refractory B-cell malignant hematologic neoplasms; conditions: patients with relapsed and/or refractory B-cell malignant hematologic neoplasms, orally 80 mg once daily for 4 weeks; cited from earlier work

Sequence of PI3Kδ (O00329 whole entry, species assumed): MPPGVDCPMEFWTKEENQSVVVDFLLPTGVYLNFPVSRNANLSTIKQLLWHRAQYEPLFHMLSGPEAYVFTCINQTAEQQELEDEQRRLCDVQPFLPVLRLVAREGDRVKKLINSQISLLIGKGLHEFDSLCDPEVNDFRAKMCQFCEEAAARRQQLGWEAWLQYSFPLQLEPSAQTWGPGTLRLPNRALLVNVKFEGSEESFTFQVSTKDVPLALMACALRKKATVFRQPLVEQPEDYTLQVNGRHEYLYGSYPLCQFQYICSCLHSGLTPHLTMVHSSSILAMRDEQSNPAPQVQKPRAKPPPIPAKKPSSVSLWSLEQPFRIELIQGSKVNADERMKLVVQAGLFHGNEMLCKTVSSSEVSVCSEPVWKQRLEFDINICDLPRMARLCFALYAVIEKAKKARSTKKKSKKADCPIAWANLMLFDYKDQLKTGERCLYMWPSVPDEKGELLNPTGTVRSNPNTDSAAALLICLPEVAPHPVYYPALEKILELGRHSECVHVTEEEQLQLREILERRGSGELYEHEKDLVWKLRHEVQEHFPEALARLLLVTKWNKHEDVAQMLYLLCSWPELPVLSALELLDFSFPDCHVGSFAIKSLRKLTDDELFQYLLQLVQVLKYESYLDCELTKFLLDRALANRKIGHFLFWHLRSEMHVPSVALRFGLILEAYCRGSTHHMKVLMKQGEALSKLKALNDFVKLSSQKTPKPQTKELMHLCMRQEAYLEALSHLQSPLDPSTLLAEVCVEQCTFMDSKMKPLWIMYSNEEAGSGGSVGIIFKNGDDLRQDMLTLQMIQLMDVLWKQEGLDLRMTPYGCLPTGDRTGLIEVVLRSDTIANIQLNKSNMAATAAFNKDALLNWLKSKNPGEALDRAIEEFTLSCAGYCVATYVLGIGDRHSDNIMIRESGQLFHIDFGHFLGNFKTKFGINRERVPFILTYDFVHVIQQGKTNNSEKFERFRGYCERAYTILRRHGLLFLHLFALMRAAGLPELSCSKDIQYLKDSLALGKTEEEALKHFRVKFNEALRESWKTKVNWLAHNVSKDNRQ
Sequence of PI3Kδ (P27986 whole entry partner, species assumed): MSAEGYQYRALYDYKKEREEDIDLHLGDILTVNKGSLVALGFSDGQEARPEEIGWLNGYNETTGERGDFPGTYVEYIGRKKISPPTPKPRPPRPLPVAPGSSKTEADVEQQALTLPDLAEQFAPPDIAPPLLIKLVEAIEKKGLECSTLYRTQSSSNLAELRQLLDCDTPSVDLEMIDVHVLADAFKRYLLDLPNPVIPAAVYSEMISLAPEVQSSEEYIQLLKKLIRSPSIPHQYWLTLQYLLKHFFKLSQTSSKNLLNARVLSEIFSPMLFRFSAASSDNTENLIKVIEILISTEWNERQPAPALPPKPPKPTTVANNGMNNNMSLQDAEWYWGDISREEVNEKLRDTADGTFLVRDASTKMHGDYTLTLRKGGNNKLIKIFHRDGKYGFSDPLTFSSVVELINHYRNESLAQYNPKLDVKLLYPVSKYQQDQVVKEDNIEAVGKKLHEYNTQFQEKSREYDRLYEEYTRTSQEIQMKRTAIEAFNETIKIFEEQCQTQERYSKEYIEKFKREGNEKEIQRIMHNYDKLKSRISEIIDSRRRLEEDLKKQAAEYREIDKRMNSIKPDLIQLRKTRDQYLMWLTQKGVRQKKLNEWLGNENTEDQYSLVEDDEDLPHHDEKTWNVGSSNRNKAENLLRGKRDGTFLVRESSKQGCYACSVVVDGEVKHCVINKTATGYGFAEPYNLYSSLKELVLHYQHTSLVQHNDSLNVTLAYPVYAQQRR
Sequence of PI3Kα (P42336 whole entry, species assumed): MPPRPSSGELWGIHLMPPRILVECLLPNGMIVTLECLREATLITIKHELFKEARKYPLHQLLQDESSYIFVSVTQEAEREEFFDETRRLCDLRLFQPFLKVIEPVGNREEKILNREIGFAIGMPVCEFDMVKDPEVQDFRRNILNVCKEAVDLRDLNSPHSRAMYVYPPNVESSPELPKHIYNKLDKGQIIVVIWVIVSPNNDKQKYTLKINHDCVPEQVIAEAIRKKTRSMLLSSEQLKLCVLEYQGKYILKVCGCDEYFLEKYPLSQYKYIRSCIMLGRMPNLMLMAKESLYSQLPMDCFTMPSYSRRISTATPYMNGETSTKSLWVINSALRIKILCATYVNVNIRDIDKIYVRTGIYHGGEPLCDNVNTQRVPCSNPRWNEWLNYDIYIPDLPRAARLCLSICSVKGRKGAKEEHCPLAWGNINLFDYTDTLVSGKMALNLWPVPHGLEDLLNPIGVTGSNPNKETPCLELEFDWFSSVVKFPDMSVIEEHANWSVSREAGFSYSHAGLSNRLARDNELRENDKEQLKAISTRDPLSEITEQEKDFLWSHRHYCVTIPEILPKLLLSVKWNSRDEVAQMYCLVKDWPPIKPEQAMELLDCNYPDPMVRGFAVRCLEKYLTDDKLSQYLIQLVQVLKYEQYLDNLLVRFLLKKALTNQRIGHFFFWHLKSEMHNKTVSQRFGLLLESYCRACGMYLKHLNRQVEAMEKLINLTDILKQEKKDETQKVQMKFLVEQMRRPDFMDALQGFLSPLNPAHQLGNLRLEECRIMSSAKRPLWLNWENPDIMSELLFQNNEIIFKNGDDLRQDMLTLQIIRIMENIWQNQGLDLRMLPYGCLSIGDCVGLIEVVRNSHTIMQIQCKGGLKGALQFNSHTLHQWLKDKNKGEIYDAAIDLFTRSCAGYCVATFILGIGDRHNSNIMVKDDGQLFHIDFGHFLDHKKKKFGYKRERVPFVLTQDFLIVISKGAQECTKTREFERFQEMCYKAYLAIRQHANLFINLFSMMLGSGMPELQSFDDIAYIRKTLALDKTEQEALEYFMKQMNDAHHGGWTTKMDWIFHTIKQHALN
Sequence of PI3Kα (P27986 whole entry partner, species assumed): as the sequence (P27986 whole entry partner, species assumed) above
Sequence of HDAC1 (Q13547 whole entry, species assumed): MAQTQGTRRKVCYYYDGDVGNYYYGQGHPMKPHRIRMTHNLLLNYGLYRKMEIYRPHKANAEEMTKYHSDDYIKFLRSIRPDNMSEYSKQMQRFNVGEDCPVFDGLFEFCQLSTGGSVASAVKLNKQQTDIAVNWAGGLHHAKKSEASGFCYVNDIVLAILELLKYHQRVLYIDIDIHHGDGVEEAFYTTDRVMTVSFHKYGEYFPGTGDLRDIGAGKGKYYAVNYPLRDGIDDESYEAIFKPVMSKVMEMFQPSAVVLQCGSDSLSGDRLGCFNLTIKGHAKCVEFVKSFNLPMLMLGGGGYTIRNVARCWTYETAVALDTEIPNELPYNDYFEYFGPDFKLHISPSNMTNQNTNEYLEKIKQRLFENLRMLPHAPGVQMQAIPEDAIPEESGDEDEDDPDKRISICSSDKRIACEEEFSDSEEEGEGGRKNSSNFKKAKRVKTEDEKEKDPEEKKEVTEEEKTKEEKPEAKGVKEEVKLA
Sequence of HDAC2 (Q92769 whole entry, species assumed): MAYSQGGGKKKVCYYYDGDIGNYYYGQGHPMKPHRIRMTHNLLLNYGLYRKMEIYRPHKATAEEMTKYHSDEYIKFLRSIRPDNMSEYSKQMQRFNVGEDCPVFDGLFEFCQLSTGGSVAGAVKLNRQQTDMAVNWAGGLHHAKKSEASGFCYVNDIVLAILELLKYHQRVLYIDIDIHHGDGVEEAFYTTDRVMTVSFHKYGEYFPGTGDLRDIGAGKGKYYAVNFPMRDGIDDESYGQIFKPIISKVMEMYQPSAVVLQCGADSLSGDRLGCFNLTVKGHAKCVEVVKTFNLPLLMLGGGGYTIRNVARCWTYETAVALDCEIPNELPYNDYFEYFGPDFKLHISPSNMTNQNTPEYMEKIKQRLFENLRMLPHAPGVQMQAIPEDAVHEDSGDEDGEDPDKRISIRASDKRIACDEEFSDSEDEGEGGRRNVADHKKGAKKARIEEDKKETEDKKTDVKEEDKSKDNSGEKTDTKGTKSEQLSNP
Sequence of PI3Kγ (P48736 whole entry, species assumed): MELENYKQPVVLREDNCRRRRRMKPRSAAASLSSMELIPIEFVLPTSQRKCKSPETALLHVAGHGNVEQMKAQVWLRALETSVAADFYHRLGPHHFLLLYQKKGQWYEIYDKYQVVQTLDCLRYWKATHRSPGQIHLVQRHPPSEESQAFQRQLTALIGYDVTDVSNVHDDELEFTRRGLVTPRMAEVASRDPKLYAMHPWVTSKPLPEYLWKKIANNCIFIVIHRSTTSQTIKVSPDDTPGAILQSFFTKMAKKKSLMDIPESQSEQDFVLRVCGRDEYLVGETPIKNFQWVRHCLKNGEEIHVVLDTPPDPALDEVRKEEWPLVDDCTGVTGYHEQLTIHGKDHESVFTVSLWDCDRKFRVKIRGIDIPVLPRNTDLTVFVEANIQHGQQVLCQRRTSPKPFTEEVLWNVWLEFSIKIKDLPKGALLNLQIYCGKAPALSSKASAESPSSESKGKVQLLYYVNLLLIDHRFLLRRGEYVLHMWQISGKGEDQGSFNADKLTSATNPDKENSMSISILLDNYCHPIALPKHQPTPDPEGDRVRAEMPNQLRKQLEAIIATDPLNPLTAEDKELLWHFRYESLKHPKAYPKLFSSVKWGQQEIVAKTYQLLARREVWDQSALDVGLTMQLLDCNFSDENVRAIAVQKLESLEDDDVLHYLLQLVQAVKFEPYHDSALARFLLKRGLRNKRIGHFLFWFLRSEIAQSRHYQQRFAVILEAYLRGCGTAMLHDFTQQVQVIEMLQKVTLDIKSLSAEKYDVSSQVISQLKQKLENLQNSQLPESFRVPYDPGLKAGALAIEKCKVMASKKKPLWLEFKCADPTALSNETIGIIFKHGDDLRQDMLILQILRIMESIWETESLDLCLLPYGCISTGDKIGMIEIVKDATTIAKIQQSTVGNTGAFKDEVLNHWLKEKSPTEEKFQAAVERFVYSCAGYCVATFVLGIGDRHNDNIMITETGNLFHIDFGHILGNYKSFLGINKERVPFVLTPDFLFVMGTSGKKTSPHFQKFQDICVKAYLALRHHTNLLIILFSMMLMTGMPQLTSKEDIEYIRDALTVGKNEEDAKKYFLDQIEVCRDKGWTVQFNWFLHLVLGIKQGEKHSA

Compound	IC50 [1] [nM]	IC50 [2] [nM]	IC50 [3] [nM]	IC50 [4] [nM]	IC50 [5] [nM]	IC50 [6] [nM]	IC50 [7] [nM]	clinical benefit in clinical studies [8]	safety profile in clinical studies [8]
COc1ncc(-c2nc(N3CCOCC3)nc3c(CN4CCC(c5ccc(C(=O)NO)c(F)c5)CC4)cc(F)cc23)cc1NS(C)(=O)=O [Compound 18]	1000 to 10000	≤ 10	100 to 1000						
COc1ncc(-c2nc(N3CCOCC3)nc3c(CN4CCC(c5c(F)cc(C(=O)NO)cc5F)CC4)cc(F)cc23)cc1NS(C)(=O)=O [Compound 19]	1000 to 10000	≤ 10	100 to 1000						
COc1ncc(-c2nc(N3CCOCC3)nc3c(CN4CCC(c5cc(F)c(C(=O)NO)cc5F)CC4)cc(F)cc23)cc1NS(C)(=O)=O [Compound 20]	1000 to 10000	≤ 10	100 to 1000						
COc1ncc(-c2nc(N3CCOCC3)nc3c(CN4CCC(C(C)(C)OCC(=O)NO)CC4)cc(F)cc23)cc1NS(C)(=O)=O [Compound 22]	100 to 1000	≤ 10	1000 to 10000						
COc1ncc(-c2nc(N3CCOCC3)nc3c(CN4CCC(c5ccc(C(=O)NO)cc5)CC4)cc(F)cc23)cc1NS(C)(=O)=O [Compound 23]	100 to 1000	≤ 10	10 to 100						
CS(=O)(=O)Nc1cncc(-c2nc(N3CCOCC3)nc3c(CN4CCC(CCCC(=O)NO)CC4)cc(F)cc23)c1 [Compound 24]	1000 to 10000	10 to 100	10 to 100						
COc1ncc(-c2nc(N3CCOCC3)nc3c(CN4CCC(CCCC(=O)NO)CC4)cc(F)cc23)cc1NS(=O)(=O)C1CC1 [Compound 25]	1000 to 10000	10 to 100	10 to 100						
COc1ncc(-c2nc(N3CCOCC3)nc3c(CN4CCC(CCCC(=O)NO)CC4)cc(F)cc23)cc1NS(=O)(=O)C(F)(F)F [Compound 26]	100 to 1000	≤ 10	10 to 100						
COc1ncc(-c2nc(N3CCOCC3)nc3c(CN4CCC(CCNC(=O)NO)CC4)cc(F)cc23)cc1NS(C)(=O)=O [Compound 28]	100 to 1000	≤ 10	> 10000						
COc1ncc(-c2nc(N3CCOCC3)nc3c(CNc4ncc(C(=O)NO)cc4F)cc(F)cc23)cc1NS(C)(=O)=O [Compound 35]		≤ 10	10 to 100	≤ 10					
COc1ncc(-c2nc(N3CCOCC3)nc3c(CNc4ccc(C(=O)NO)cc4F)cc(F)cc23)cc1NS(C)(=O)=O [Compound 36]		10 to 100	10 to 100	100 to 1000					
COc1ncc(-c2nc(N3CCOCC3)nc3c(OC4CCC(c5ccc(C(=O)NO)cc5F)CC4)cc(F)cc23)cc1NS(C)(=O)=O (stereo not drawn) [Compound 41]		100 to 1000	100 to 1000	1000 to 10000					
COc1ncc(-c2nc(N3CCOCC3)nc3c(OC4CCN(c5c(F)cc(C(=O)NO)cc5F)CC4)cc(F)cc23)cc1NS(C)(=O)=O [Compound 42]		10 to 100	100 to 1000	1000 to 10000					
COc1ncc(-c2nc(N3CCOCC3)nc3c(CN4CCc5cc(C(=O)NO)cc(F)c5C4)cc(F)cc23)cc1NS(C)(=O)=O [Compound 43]		10 to 100	100 to 1000	1000 to 10000					
COc1ncc(-c2nc(N3CCOCC3)nc3c(OC4CCN(c5cc(C(=O)NO)no5)CC4)cc(F)cc23)cc1NS(C)(=O)=O [Compound 44]		10 to 100	10 to 100	100 to 1000	100 to 1000				
COc1ncc(-c2nc(N3CCOCC3)nc3c(OCc4ncc(C(=O)NO)cc4F)cc(F)cc23)cc1NS(C)(=O)=O [Compound 45]		1000 to 10000	10 to 100	100 to 1000	1000 to 10000				
COc1ncc(-c2nc(N3CCOCC3)nc3c(CN4CCC(C(C)(C)O)CC4)cc(F)cc23)cc1NS(C)(=O)=O [YY-20394, N-(5-(6-fluoro-8-((4-(2-hydroxypropyl-2-yl)piperidin-1-yl)methyl)-2-morpholine-quinazolin-4-yl)-2-methoxypyridin-3-yl)methanesulfonamide, reference compound]	100 to 1000	≤ 10	> 10000			100 to 1000	> 10000	clinical benefit	favorable safety profile
